Measured values: ChEMBL document CHEMBL1201862, “PubChem BioAssay data set” (2004)
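Method: 48-hour compound exposure of cells in 96-well plates, five concentrations, linear interpolation of endpoints. GI50 is the concentration that inhibits growth by half.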 Calls of active or inactive are those of the source. No stated cut-off is given here; in the data, active = GI50 up to about 1.1 µM and inactive = higher.

Columns and labels:
Assay in all cases: DTP human tumour cell line panel, 48 h
[1] = tested on: 786-0
[2] = tested on: A549
[3] = tested on: ACHN
[4] = tested on: CAKI-1
[5] = tested on: CCRF-CEM
[6] = tested on: COLO 205
[7] = tested on: DU-145
[8] = tested on: EKVX
[9] = tested on: HCC 2998
[10] = tested on: HCT-116
[11] = tested on: HCT-15
[12] = tested on: HL-60
[13] = tested on: HOP-62
[14] = tested on: HOP-92
[15] = tested on: HT-29
[16] = tested on: Hs-578T
[17] = tested on: IGROV-1
[18] = tested on: K562
[19] = tested on: KM12
[20] = tested on: LOX IMVI
[21] = tested on: M14
[22] = tested on: MCF7
[23] = tested on: MDA-MB-231
[24] = tested on: MDA-MB-435
[25] = tested on: MDA-N
[26] = tested on: MOLT-4
[27] = tested on: Malme-3M
[28] = tested on: NCI-H226
[29] = tested on: NCI-H23
[30] = tested on: NCI-H460
[31] = tested on: NCI-H522
[32] = tested on: NCI/ADR-RES
[33] = tested on: OVCAR-3
[34] = tested on: OVCAR-4
[35] = tested on: OVCAR-5
[36] = tested on: OVCAR-8
[37] = tested on: RXF 393
[38] = tested on: SF-268
[39] = tested on: SF-295
[40] = tested on: SF-539
[41] = tested on: SK-MEL-28
[42] = tested on: SK-OV-3
[43] = tested on: SN12C
[44] = tested on: SNB-19
[45] = tested on: SNB-75
[46] = tested on: SR
[47] = tested on: SW-620
[48] = tested on: T47D
[49] = tested on: TK-10
[50] = tested on: U-251
[51] = tested on: UACC-257
[52] = tested on: UACC-62
[53] = tested on: UO-31
[54] = tested on: PC-3
[55] = tested on: RPMI-8226
[56] = tested on: SK-MEL-2
[57] = tested on: SK-MEL-5

CC(=O)SCCC(NC(=S)Nc1ccccc1)P(=O)(Oc1ccccc1)Oc1ccccc1 (configuration not stated)
GI50 [1]: > 100 µM (inactive) | GI50 [2]: > 100 µM (inactive) | GI50 [3]: > 100 µM (inactive) | GI50 [4]: > 100 µM (inactive) | GI50 [5]: > 100 µM (inactive) | GI50 [6]: > 100 µM (inactive) | GI50 [7]: > 100 µM (inactive) | GI50 [8]: > 100 µM (inactive) | GI50 [9]: > 100 µM (inactive) | GI50 [10]: > 100 µM (inactive) | GI50 [11]: > 100 µM | GI50 [12]: > 100 µM (inactive) | GI50 [13]: > 100 µM (inactive) | GI50 [14]: > 100 µM (inactive) | GI50 [15]: > 100 µM (inactive) | GI50 [16]: > 100 µM (inactive) | GI50 [17]: > 100 µM (inactive) | GI50 [18]: > 100 µM (inactive) | GI50 [19]: > 100 µM (inactive) | GI50 [20]: > 100 µM (inactive) | GI50 [21]: > 100 µM (inactive) | GI50 [22]: > 100 µM (inactive) | GI50 [23]: > 100 µM (inactive) | GI50 [24]: > 100 µM (inactive) | GI50 [25]: > 100 µM (inactive) | GI50 [26]: > 100 µM (inactive) | GI50 [27]: > 100 µM (inactive) | GI50 [28]: > 100 µM (inactive) | GI50 [29]: > 100 µM (inactive) | GI50 [30]: > 100 µM (inactive) | GI50 [31]: > 100 µM (inactive) | GI50 [32]: > 100 µM (inactive) | GI50 [33]: > 100 µM (inactive) | GI50 [34]: > 100 µM (inactive) | GI50 [35]: > 100 µM (inactive) | GI50 [36]: > 100 µM (inactive) | GI50 [37]: > 100 µM (inactive) | GI50 [38]: > 100 µM (inactive) | GI50 [39]: > 100 µM (inactive) | GI50 [40]: > 100 µM (inactive) | GI50 [41]: > 100 µM (inactive) | GI50 [42]: > 100 µM (inactive) | GI50 [43]: > 100 µM (inactive) | GI50 [44]: > 100 µM (inactive) | GI50 [45]: > 100 µM (inactive) | GI50 [46]: > 100 µM (inactive) | GI50 [47]: > 100 µM (inactive) | GI50 [48]: > 100 µM (inactive) | GI50 [49]: 60.8 µM (inactive) | GI50 [50]: > 100 µM (inactive) | GI50 [51]: > 100 µM (inactive) | GI50 [52]: > 100 µM (inactive) | GI50 [53]: > 100 µM (inactive)

CC(C)(C)C(=O)CC(=O)C(F)(F)C(F)(F)C(F)(F)F
GI50 [1]: 17 µM (inactive) | GI50 [2]: 22.3 µM (inactive) | GI50 [3]: 15.3 µM (inactive) | GI50 [4]: 14.7 µM (inactive) | GI50 [5]: 16.3 µM (inactive) | GI50 [6]: 19 µM (inactive) | GI50 [7]: 36.1 µM (inactive) | GI50 [8]: 15.2 µM (inactive) | GI50 [10]: 18.3 µM (inactive) | GI50 [11]: 14.3 µM | GI50 [12]: 19.2 µM (inactive) | GI50 [13]: 18.3 µM (inactive) | GI50 [14]: 14.7 µM (inactive) | GI50 [15]: 17.1 µM (inactive) | GI50 [16]: 14.6 µM (inactive) | GI50 [17]: 11.9 µM (inactive) | GI50 [18]: 15.8 µM (inactive) | GI50 [19]: 16.7 µM (inactive) | GI50 [20]: 0.362 µM (active) | GI50 [21]: 16 µM (inactive) | GI50 [23]: 15.5 µM (inactive) | GI50 [24]: 15.5 µM (inactive) | GI50 [25]: 15.4 µM (inactive) | GI50 [26]: 17.9 µM (inactive) | GI50 [27]: 22.1 µM (inactive) | GI50 [28]: 27.8 µM (inactive) | GI50 [29]: 12.6 µM (inactive) | GI50 [30]: 12.9 µM (inactive) | GI50 [32]: 18.6 µM (inactive) | GI50 [33]: 14.1 µM (inactive) | GI50 [34]: 13.2 µM (inactive) | GI50 [35]: 35.4 µM (inactive) | GI50 [36]: 20.7 µM (inactive) | GI50 [54]: 13.6 µM (inactive) | GI50 [55]: 11.1 µM (inactive) | GI50 [37]: 17.3 µM (inactive) | GI50 [38]: 17 µM (inactive) | GI50 [39]: 17.5 µM (inactive) | GI50 [40]: 24.8 µM (inactive) | GI50 [41]: 14.1 µM (inactive) | GI50 [56]: 16.4 µM (inactive) | GI50 [57]: 7.19 µM (inactive) | GI50 [42]: 20.9 µM (inactive) | GI50 [43]: 13.9 µM (inactive) | GI50 [44]: 20 µM (inactive) | GI50 [45]: 16.6 µM (inactive) | GI50 [46]: 5.06 µM (inactive) | GI50 [47]: 18.8 µM (inactive) | GI50 [48]: 16 µM (inactive) | GI50 [49]: 18.2 µM (inactive) | GI50 [50]: 18.4 µM (inactive) | GI50 [51]: 15.3 µM (inactive) | GI50 [52]: 15.3 µM (inactive) | GI50 [53]: 20 µM (inactive)
